These results are taken from patent US20230287021A1, “COMPOUNDS, COMPOSITIONS AND METHODS FOR STABILIZING TRANSTHYRETIN AND INHIBITING TRANSTHYRETIN MISFOLDING” (Protego Biopharma, Inc., priority 2020, published 2023).

The nature of series [1]: In vitro rat plasma stability assay, formation of tafamidis. In kind it is in vitro ADME. The settings on record: 37° C., 2 µM test compound. On the procedure: A stability assay in plasma (rat or human) was used to evaluate the ability of a compound provided herein to convert to an active TTR stabilizer. The test compound was added to plasma and incubated at 37° C. in a water bath at a concentration of 2 µM. At each time point (0, 10, 30, 60 and 120 min or 0, 60, 120, 180 and 240 min), stop solution (tolbutamide plus labetalol) was added to precipitate protein and mixed thoroughly. After centrifugation, an aliquot of supernatant was analyzed by LC-MS/MS. The percentage of formation of active agent was calculated at each time point.

Series [2] can be described thus: In vitro rat liver S9 stability assay, formation of tafamidis. Conditions: rat liver S9, 37° C., 1 µM test compound. The format is in vitro ADME. The protocol:
The test compound was added to liver S9 and incubated at 37° C. in a water bath at a concentration of 1 µM. At each time point (0, 5, 10, 20, 30 and 60 min), stop solution (tolbutamide plus labetalol) was added to precipitate protein and mixed thoroughly. After centrifugation, an aliquot of supernatant was analyzed by LC-MS/MS. The percentage of formation of active agent was calculated at each time point.

Each structure is given as a SMILES string. Where a name gives a salt, the structure may show the parent alone.

Consider `CCNC(=O)c1ccc2nc(-c3cc(Cl)cc(Cl)c3)oc2c1` [Compound 183], for which the “Formation of tafamidis at 120 min” value in series [1] is on record as “A (A is <25%)”. The “Formation of tafamidis at 60 min” value in series [2] is “A (A is <25%)”.
On to `N#CCN1CCC(OC(=O)c2ccc3nc(-c4cc(Cl)cc(Cl)c4)oc3c2)C1` (stereo not drawn) [Compound 176], for which the “Formation of tafamidis at 120 min” value in series [1] was “C (C is ≥50 to <75%)”. Also, the “Formation of tafamidis at 60 min” value in series [2] is “D (D is ≥75%)”.
Taken in the same sequence, the figures for `N#CCCN1CCC(OC(=O)c2ccc3nc(-c4cc(Cl)cc(Cl)c4)oc3c2)C1` (stereo not drawn) [Compound 179] were “B (B is ≥25 to <50%)” and “C (C is ≥50 to <75%)”.
Regarding `CN1CC(OC(=O)c2ccc3nc(-c4cc(Cl)cc(Cl)c4)oc3c2)C(F)(F)C1` (stereo not drawn) [Compound 175], the “Formation of tafamidis at 120 min” value in series [1] is listed as “D (D is ≥75%)”. Further, in series [2], the “Formation of tafamidis at 60 min” value is recorded as “D (D is ≥75%)”.
On to `CC1CCC(OC(=O)c2ccc3nc(-c4cc(Cl)cc(Cl)c4)oc3c2)C1` (stereo not drawn) [Compound 185], for which the “Formation of tafamidis at 120 min” value in series [1] was “A (A is <25%)”. For the same compound, the “Formation of tafamidis at 60 min” value in series [2] is given as “B (B is ≥25 to <50%)”.
Taken in the same sequence, the figures for `O=C(OCCN1CCOCC1)c1ccc2nc(-c3cc(Cl)cc(Cl)c3)oc2c1` [Compound 80] were “B (B is ≥25 to <50%)” and “D (D is ≥75%)”.
On the same counts, the results for `O=C(OC1CCNC1)c1ccc2nc(-c3cc(Cl)cc(Cl)c3)oc2c1` (stereo not drawn) [Compound 17, pyrrolidin-3-yl 2-(3,5-dichlorophenyl)benzo[d]oxazole-6-carboxylate hydrochloride] are “A (A is <25%)” and “A (A is <25%)”.
For the compound `CC(C)(C)OC(=O)N1CCC(OC(=O)c2ccc3nc(-c4cc(Cl)cc(Cl)c4)oc3c2)CC1` [Compound 12, 1-(tert-butoxycarbonyl)piperidin-4-yl 2-(3,5-dichlorophenyl)benzo [d]oxazole-6-carboxylate], the “Formation of tafamidis at 120 min” value in series [1] is listed as “A (A is <25%)”.
Still for that read-out and setting: the entry for `CC(C)(C)OC(=O)NCCCOC(=O)c1ccc2nc(-c3cc(Cl)cc(Cl)c3)oc2c1` [Compound 31, 3-((tert-butoxycarbonyl)amino)propyl 2-(3,5-dichlorophenyl) benzo [d]oxazole-6-carboxylate] is “C (C is ≥50 to <75%)”; for `O=C(OCCCN1CCNCC1)c1ccc2nc(-c3cc(Cl)cc(Cl)c3)oc2c1` [Compound 83] it is “D (D is ≥75%)”; for `O=C(OCCCC1CCOC1)c1ccc2nc(-c3cc(Cl)cc(Cl)c3)oc2c1` (stereo not drawn) [Compound 100] it is “D (D is ≥75%)”.
Same read-out and setting: in the case of `CN(C)C(CO)COC(=O)c1ccc2nc(-c3cc(Cl)cc(Cl)c3)oc2c1` (stereo not drawn) [Compound 55, 2-(dimethylamino)-3-hydroxypropyl 2-(3,5-dichlorophenyl) benzo [d]oxazole-6-carboxylate] it was “D (D is ≥75%)”.
The same measure, in the same setting: in the case of `CCN(C)CCOC(=O)c1ccc2nc(-c3cc(Cl)cc(Cl)c3)oc2c1` [Compound 43] it was “C (C is ≥50 to <75%)”; in that of `O=C(OCCC1CCCO1)c1ccc2nc(-c3cc(Cl)cc(Cl)c3)oc2c1` (stereo not drawn) [Compound 97], “A (A is <25%)”; in that of `CC(C)(C)OC(=O)N[C@@H](Cc1ccc(OC(=O)c2ccc3nc(-c4cc(Cl)cc(Cl)c4)oc3c2)cc1)C(=O)O` [Compound 22, (S)-2-((tert-butoxycarbonyl)amino)-3-(4-((2-(3,5-dichlorophenyl)benzo[d]oxazole-6-carbonyl)oxy)phenyl)propanoic acid], “D (D is ≥75%)”.
As to `CC(C)(C)OC(=O)N[C@H](Cc1cccc(OC(=O)c2ccc3nc(-c4cc(Cl)cc(Cl)c4)oc3c2)c1)C(=O)OCc1ccccc1` [Compound 63], the “Formation of tafamidis at 120 min” value in series [1] is listed as “B (B is ≥25 to <50%)”.
On the same count and under the same terms, the entry for `C[C@@H](COC(=O)c1ccc2nc(-c3cc(Cl)cc(Cl)c3)oc2c1)N(C)C` [Compound 44, (S)-2-(dimethylamino)propyl 2-(3,5-dichlorophenyl)benzo[d] oxazole-6-carboxylate] is “C (C is ≥50 to <75%)”.
